Measured values taken from US20050202423A1, “Method for identifying compounds or lead structures against rna target motifs and rna/protein interactions” (priority 2000, published 2005).
Like-named read-outs stand apart in the source and are kept apart here.

How the values were obtained:
Rev protein [1] = target: T1, Rev protein (Human immunodeficiency virus type 1 group M subtype B, UniProt P04618); assay: Surface plasmon resonance, Rev protein; format: binding, HIV; details: 100 μM antibiotic, 25° C.
T1 construct: the intact Rev protein and by the Rev peptide
Description: (§1) 20 μl 100 μM antibiotic in test buffer was injected at 25° C., rate 10 μl/s.
(§2) Surface plasmon resonance studies were performed with a Biocore 3000 instrument in the automatic mode.

Rev peptide / AIR = target: T2, Rev peptide / AIR (Human immunodeficiency virus type 1 group M subtype B, UniProt P04618); assay: AIR screen (screen 2) of antibiotics: inhibition of Rev-activated AIR; format: biochemical, HIV; details: for AIR screen outcome (inhibition of AIR relative to HHR): 100 μM antibiotic, 250 nM Rev peptide
T2 construct: includes aminoacids 34 to 50 of the Rev protein
Description: (§3) Cleavage reactions with multiple turnover were performed at 32° C. in a test buffer containing 50 mM Tris (pH 7.9) and 25 mM NaCl. The total volume of the reactions was 50 μl in plates with 96 flat bottom wells. The fluorescence measurements were performed at an excitation wavelength of 489 nm, FAM emission at 520 nm and with the fluorescence detector Ascent Fluoroscan FL, as described by Jenne, A. et al., Rapid identification and characterization of hammerhead-ribozyme inhibitors using fluorescence-based technology, Nat Biotechnol 19, 56-61 (2001). Ribozyme (10 nM) and FRET-labeled substrate (200 nM) were first incubated in test buffer at room temperature for 5 min, followed by optional addition of Rev and/or antibiotic. The reactions were then incubated for 5 min at 32° C. and started by the addition of MgCl2 to a final concentration of 8 mM, using the dispensing function of the fluorometer. Negative controls were always included for reactions without ribozyme and were subtracted after the measurements.
(§4) Two different screening experiments were performed, one using the RRR reporter construct and the other using AIR. […] Each reaction which contained antibiotics also contained Rev peptide. For each antibiotic, three different reactions were performed: HHR, reporter construct (RRR or AIR), negative controls, which only contained antibiotic and Rev and substrate. The antibiotic concentrations were 100 μM in each case. After subtraction of the negative control, the rise in fluorescence in the first five minutes, corresponding to the initial rate of reaction, was divided by the rise in fluorescence in the standard reaction without antibiotic, containing the active state of the ribozyme (see also FIG. 10).
[…]. […] […].

RRR = assay: Dependence of RRR cleavage activity on Rev (FRET ribozyme reaction); format: biochemical; details: for IC50: read-out: K inh (inhibition of RRR at the half maximal concentration of Rev)
Description: (§5) Negative control reactions without ribozymes were subtracted.
as §3

AIR = assay: Dependence of AIR cleavage activity on Rev (FRET ribozyme reaction); format: biochemical; details: for EC50: read-out: Kact (activation of AIR)
Description: as §5, §3

Rev peptide = target: T3, Rev peptide (Human immunodeficiency virus type 1 group M subtype B, UniProt P04618); assay: Surface plasmon resonance, Rev peptide; format: binding, HIV; details: 100 μM antibiotic, 25° C.
T3 construct: includes aminoacids 34 to 50 of the Rev protein
Description: as §1, §2

RRR-RNA = assay: Surface plasmon resonance, RRR-RNA surface; format: binding; details: 100 μM antibiotic, 25° C.
Description: 20 μl 100 μM antibiotic in test buffer was injected at 25° C., rate 10 μl/s. […] There is no binding to RRR-derivatized surfaces detectable. Coumermycin only binds to Rev, but not to ribozymes. FIG. 13b illustrates the interaction between novobiocin, rosamicin, griseofulvin, streptolydigin and patulin with surfaces derivatized with Rev protein.
Surface plasmon resonance studies were performed with a Biocore 3000 instrument in the automatic mode. Rev protein and peptide surfaces were prepared by injection of 100 μM solutions in 60 mM NaOAc, pH 5.7 on EDC/NHS-activated CM5-Chips, which gave 1800 RU immobilized peptide and 5000 RU protein.

hammerhead ribozyme HHR = assay: HHR cleavage reaction (internal control, FRET); format: biochemical
Description: as §3, §4

Rev peptide / RRR = target: T4, Rev peptide / RRR (Human immunodeficiency virus type 1 group M subtype B, UniProt P04618); assay: RRR screen (screen 1) of antibiotics: restoration of cleavage activity; format: biochemical, HIV; details: 100 μM, 1 μM Rev-peptide
T4 construct: includes aminoacids 34 to 50 of the Rev protein
Description: as §3, with “Negative controls were always included for reactions without ribozyme and were subtracted after the measurements.” left out
Two different screening experiments were performed, one using the RRR reporter construct and the other using AIR. […] After subtraction of the negative control, the rise in fluorescence in the first five minutes, corresponding to the initial rate of reaction, was divided by the rise in fluorescence in the standard reaction without antibiotic, containing the active state of the ribozyme (see also FIG. 10). […]

reverse transcriptase = reverse transcriptase (Human immunodeficiency virus type 1 group M subtype B, UniProt P04585); assay: Standard transcriptase assay (specificity control); format: biochemical, HIV-1; details: 2.5 μM
Description: As a control of the target protein reverse transcriptase, another nucleic acid binding protein from HIV-1 was tested, to check the specificity of the identified Rev-binding antibiotics.

Rev protein [2] = target: T5, Rev protein (HIV-1, UniProt P04618 P04618:1-116); assay: competition; 2 uM RNA competes with IRK-1 for 200 nM Rev; 10 mM HEPES pH 7.4, 100 mM NaCl, 10 mM MgCl2; details: tags: full-length
Rev protein [3] = target: T5, Rev protein; assay: cleavage_in_vitro; K act of ribozyme; 8 mM MgCl2, 32 C; details: tags: full-length
Rev protein [4] = target: Rev protein (HIV-1, UniProt P04618 P04618:1-116); assay: inhibition; K inh of ribozyme; 8 mM MgCl2, 32 C; details: tags: full-length; label: biotin (SPR surface) or 5'-32P (filter); hammerhead ribozyme

Molecule: CC[C@H]1OC(=O)C[C@@H](O)[C@H](C)[C@@H](O[C@@H]2O[C@H](C)C[C@H](N(C)C)[C@H]2O)[C@@H](CC=O)C[C@@H](C)C(=O)/C=C/[C@]2(C)O[C@H]2[C@@H]1C [rosamicin]
- binding to surface derivatized with Rev protein (Rev protein [1]): Only the antibiotics novobiocin and patulin, which were identified in the course of screening, exhibited binding to Rev

Molecule: O=C1C=C2C(=CCOC2O)O1 (centres unmarked) [patulin]
- binding to surface derivatized with Rev protein (Rev protein [1]): exhibited binding
- AIR screen outcome (inhibition of AIR relative to HHR) (Rev peptide / AIR): Rev inhibitors

Molecule: COC1=CC(=O)C[C@@H](C)[C@]12Oc1c(Cl)c(OC)cc(OC)c1C2=O [griseofulvin]
- binding to surface derivatized with Rev protein (Rev protein [1]): Only the antibiotics novobiocin and patulin, which were identified in the course of screening, exhibited binding to Rev

Molecule: Rev protein: intact Rev protein of HIV
- concentration above which RRR is inhibited (RRR): above 1 μM
- IC50 (RRR; Rev protein): 1700 nM
- concentration at which AIR is still activated (AIR): above 5 μM
- inhibition of AIR by high concentrations (AIR): no observed inhibition
- EC50 (AIR): 192 nM

Molecule: C=C(NC(=O)c1csc(-c2nc3c(cc2O)-c2nc(cs2)C(=O)NC(C(C)O)C(=O)N/C(=C\C)c2nc(cs2)C(=O)NC2CC(O)C(=O)OCc4cccc5[nH]c(c(C)c45)C(=O)SCC(NC(=O)c4csc2n4)c2nc-3cs2)n1)C(N)=O (centres unmarked) [nosiheptide]
- AIR screen outcome (inhibition of AIR relative to HHR) (Rev peptide / AIR): Rev inhibitors

Molecule: coumermycin A1
- binding to surface derivatized with Rev protein (Rev protein [1]): binding
- binding to surface derivatized with Rev peptide (Rev peptide): binding
- binding to RRR-derivatized surface (RRR-RNA): no binding
- effect on wildtype HHR (hammerhead ribozyme HHR; 100 μM with 1 μM Rev-peptide): hardly affected
- reversal of the action of Rev on RRR (Rev peptide / RRR): fully reversed
- AIR screen outcome (inhibition of AIR relative to HHR) (Rev peptide / AIR): Rev inhibitors
- reversal of the action of Rev on AIR (Rev peptide / AIR; 100 μM, 250 nM Rev): fully reversed

Molecule: CO[C@@H]1[C@@H](OC(N)=O)[C@@H](O)[C@H](Oc2ccc3c(O)c(NC(=O)c4ccc(O)c(CC=C(C)C)c4)c(=O)oc3c2C)OC1(C)C [novobiocin]
- binding to surface derivatized with Rev protein (Rev protein [1]): exhibited binding

Molecule: Rev peptide: Rev peptide, which includes aminoacids 34 to 50 of the Rev protein (TRQARRNRRRRWRERQR; UniProt P04618 34-50, looked up, fragment)
- effect of Rev on ribozyme RRR (RRR; 1 μM Rev-peptide): inhibition
- IC50 (RRR; Rev peptide): 464 nM
- concentration above which AIR is inhibited (AIR): above 800 nM
- effect of Rev on AIR (AIR; 250 nM Rev): activation
- EC50 (AIR): 170 nM
- concentration above which HHR is inhibited (hammerhead ribozyme HHR): more than 1 μM
- initial activity of HHR (hammerhead ribozyme HHR; 1 μM Rev): 93%
- effect of Rev on wildtype HHR (hammerhead ribozyme HHR; 1 μM Rev-peptide): hardly affected
- concentration above which HHR is inhibited (hammerhead ribozyme HHR; listed as Rev): above 1 μM

Molecule: CNC(=O)[C@@H](C)[C@H]1C(=O)/C(=C(O)/C=C/C(C)=C/[C@@H](C)[C@H]2O[C@@]3(C)O[C@H](C=C[C@@]34CO4)[C@@H]2C)C(=O)N1[C@@H]1CC[C@H](O)[C@H](C)O1 [streptolydigin]
- binding to surface derivatized with Rev protein (Rev protein [1]): Only the antibiotics novobiocin and patulin, which were identified in the course of screening, exhibited binding to Rev

Molecule: Nc1ccn([C@H]2CC[C@@H](COP(=O)(O)OP(=O)(O)OP(=O)(O)O)O2)c(=O)n1 [ddCTP]
- inhibition of reverse transcriptase (reverse transcriptase): total inhibition

Molecule: GGGAGGUGGACUCCAGCUUCGGCUGUUGAGAUACACC (ssRNA) [Seq 5]
- binding result (Rev protein [2]): binds

B1: AIR (aptamer-inhibited ribozyme) (ssRNA)
RNA: GGGACUCGCUUCGGCUUGAGAUACCAAAAAGGGUCCUCUGAUGAGGCCGUUAGGCCGAAACUCGU
- apparent K (half saturation) (Rev protein [3]): 192 nM

B2: RRR (Rev-responsive ribozyme, RBE in stem II) (ssRNA)
RNA: GGGUCCUCUGAUGAGCUCUGGGCGCAGCUUCGGCUGACGGUACUUGCGAAACUCGU
- apparent K (half saturation) (Rev protein [4]): 1700 nM
